Measurements taken from US8288421B2, “Phenylaminopyridines” (Basilea Pharmaceutica AG, priority 2004, dated 2012).
pEC50, pIC50: −log10 of the molar value.

Assays:
DOHH2 = test: Mitochondrial membrane potential (JC-1); assay type: cell-based; settings: DOHH2, 48 h read-out
Method: (§1) This assay is performed in 96 well tissue culture plates. Appropriate number of cells (adherent cells: 3-5*10^3, suspension cells: 8-10*10^3) are being seeded out in 80 μl complete medium. Adherent cells are incubated for 24 h for proper spreading out before addition of test compounds while suspension cells are immediately treated with test compounds after seeding out. The test compounds are added in 20 μal complete medium containing max 5% DMSO. […] The assay plates are then further incubated for 30 minutes and subsequently analyzed with a standard inverted fluorescence microscope by using the FITC and TRITC filters.
(§2) The scores A, B, C and D are explained at the end of the Table.

Jurkat [1] = test: Mitochondrial membrane potential (JC-1); assay type: cell-based, human; settings: 48 h read-out
Method: as §1, §2

PBL [2] = test: Mitochondrial membrane potential (JC-1); assay type: cell-based, human; settings: 48 h read-out
Method: as §1, §2

MCF7 = test: Mitochondrial membrane potential (JC-1); assay type: cell-based, human; settings: MCF7, 48 h read-out
Method: as §1, §2

HeLa [3] = test: Mitochondrial membrane potential (JC-1); assay type: cell-based, human; settings: 48 h read-out
Method: as §1, §2

MRC5 [4] = test: Hoechst 33342 nuclear staining; assay type: cell-based; settings: MRC5, 48 h read-out
Method: as §1, with “μl” for “μal”, “DMSO. The final compound concentrations in the assays are in the range of 0.001 μM-10 μM.” for “DMSO.”, “microscope.” for “microscope by using the FITC and TRITC filters.”
(§3) The readout allows the determination of the fraction of apoptotic nuclei as well as other morphological criteria specific for apoptosis as a function of the treatment. The scores A, B, C and D are explained at the end of the Table.

Jily [5] = test: Hoechst 33342 nuclear staining; assay type: cell-based; settings: 48 h read-out
Method: as §1, with “μl” for “μal”, “DMSO. The final compound concentrations in the assays are in the range of 0.001 μM-10 μM.” for “DMSO.”, “microscope.” for “microscope by using the FITC and TRITC filters.”
as §3

HeLa [6] = test: PI staining for cell cycle distribution; assay type: cell-based, human; settings: 24 h read-out, read-out: PI staining for cell cycle distribution EC50 (G2M arrest), HeLa
Method: 1-2*10^5 cells are seeded into 24 well tissue culture plates and incubated for 24 h prior to compound addition. Compounds are added for 24 h in a final concentration of 3 μM or 10 μM. Adherent cells are harvested by trypsinization. The cell suspensions are fixed by adding 2 parts ice cold ethanol 100% while vortexing. Then the samples are stored for >2 h at −20° C. Subsequently the cells are washed with PBS once and resuspended in 250 μl PBS containing 50 μg/ml PI (Calbiochem #537059), then the samples are incubated at 37° C. for 30 minutes and subsequently analyzed on a FACSCalibur™ monitoring linear PI fluorescence activity on FL2. The readout allows the detection of a possible direct or indirect influence of the tested compounds on the cell cycle. All active test compounds induce an arrest of the cell population in the G2M phase. This effect has been quantified by running the test at different concentrations. In Table 4 EC50 values are tabulated.

MRC5 [7] = test: MTS proliferation assay; assay type: cell-based; settings: MRC5, 72 h read-out
Method: (§4) The assay is performed in 96 well tissue culture plates. The cells (range: 1.5*10^3-10^4) are seeded out in 80 μl complete medium 24 h prior to compound treatment. The test compounds are added in 20 μl complete medium containing max 5% DMSO. The final compound concentrations in the assays are in the range of 0.001 μM-10 μM. The assay plates are incubated for 72 h at culture conditions. The MTS reagent is prepared according to the manufacturer's protocol (Promega G1111). 20 μl MTS reagent are added to each well, the assay plates are quickly spun and incubated for another 3 h at culture conditions. Subsequently, the plates are shortly shaked and absorption measured with a microplate-reader at 492 nm. The scores A, B, C and D are explained at the end of the Table.

Jily [8] = test: MTS proliferation assay; assay type: cell-based; settings: 72 h read-out
Method: as §4

Jurkat [9] = test: MTS proliferation assay; assay type: cell-based, human; settings: 72 h read-out
Method: as §4

HeLa [10] = test: MTS proliferation assay; assay type: cell-based, human; settings: 72 h read-out
Method: as §4

HT1080 = test: MTS proliferation assay; assay type: cell-based, human; settings: HT1080, 72 h read-out
Method: as §4

Jurkat [11] = test: Hoechst 33342 nuclear staining; assay type: cell-based, human; settings: 48 h read-out
Method: as §1, with “μl” for “μal”, “DMSO. The final compound concentrations in the assays are in the range of 0.001 μM-10 μM.” for “DMSO.”, “microscope.” for “microscope by using the FITC and TRITC filters.”
as §3

PBL [12] = test: Hoechst 33342 nuclear staining; assay type: cell-based, human; settings: 48 h read-out
Method: as §1, with “μl” for “μal”, “DMSO. The final compound concentrations in the assays are in the range of 0.001 μM-10 μM.” for “DMSO.”, “microscope.” for “microscope by using the FITC and TRITC filters.”
as §3

HeLa [13] = test: Hoechst 33342 nuclear staining; assay type: cell-based, human; settings: 48 h read-out
Method: as §1, with “μl” for “μal”, “DMSO. The final compound concentrations in the assays are in the range of 0.001 μM-10 μM.” for “DMSO.”, “microscope.” for “microscope by using the FITC and TRITC filters.”
as §3

H460 = test: Colony Forming Units; assay type: cell-based, human; settings: H460, read-out after 6 days
Method: (§5) Appropriate numbers of cells (100-150 cells, dependent on the cell type) are being seeded out in 1 ml complete medium into 6-well plates and allowed to attach for 48 h. The compounds are added after 48 h in 500 μl solution. The concentrations are in the range of 0.001 μM-3 μM. Control plates receive the same volume of medium containing the appropriate amount of DMSO. The plates are incubated for 6 days at cell culture conditions and subsequently scored for growth of colonies (containing more than 30 cells) by using a microscope.

HeLa [14] = test: Colony Forming Units; assay type: cell-based, human; settings: read-out after 6 days
Method: as §5

SMILES	pEC50 (DOHH2)	pEC50 (Jurkat [1])	pEC50 (PBL [2])	pEC50 (MCF7)	pEC50 (HeLa [3])	pEC50 (MRC5 [4])	pEC50 (Jily [5])	pEC50 (HeLa [6])	pIC50 (MRC5 [7])	pIC50 (Jily [8])	pIC50 (Jurkat [9])	pIC50 (HeLa [10])	pIC50 (HT1080)	pEC50 (Jurkat [11])	pEC50 (PBL [12])	pEC50 (HeLa [13])	pEC50 (DOHH2; Homo sapiens, DOHH-2)	pEC50 (Jurkat [1]; Homo sapiens)	pEC50 (PBL [2]; Homo sapiens)	pEC50 (MCF7; Homo sapiens)	also measured
COc1ccc(Nc2cncc(-c3cccc(NC(=O)c4cccnc4Cl)c3)c2)cc1 [Example 11]	7.00 to 8.00	7.00 to 8.00	< 6.00	< 6.00	7.00 to 8.00	7.00 to 8.00	7.00 to 8.00	> 8.00	7.00 to 8.00	7.00 to 8.00	7.00 to 8.00	7.00 to 8.00	7.00 to 8.00	7.00 to 8.00	< 6.00	7.00 to 8.00					
COc1ccc(Nc2cncc(-c3cccc(NS(C)(=O)=O)c3)c2)cc1 [Example 1, 3-(m-Mesylaminophenyl)-5-(p-methoxyphenylamino)pyridine]							6.00 to 7.00			7.00 to 8.00							6.00 to 7.00	6.00 to 7.00	< 6.00	< 6.00	pEC50 (HeLa [3]; Homo sapiens): 6.00 to 7.00; pEC50 (MRC5 [4]; Homo sapiens): 6.00 to 7.00; pEC50 (HeLa [6]; Homo sapiens): 6.00 to 7.00; pIC50 (MRC5 [7]; Homo sapiens): 6.00 to 7.00; pIC50 (Jurkat [9]; Homo sapiens): 7.00 to 8.00; pIC50 (HeLa [10]; Homo sapiens): 6.00 to 7.00; pIC50 (HT1080; Homo sapiens, HT-1080): 6.00 to 7.00; pEC50 (Jurkat [11]; Homo sapiens): 6.00 to 7.00; pEC50 (PBL [12]; Homo sapiens): < 6.00; pEC50 (HeLa [13]; Homo sapiens): 6.00 to 7.00; melting point: 240 °C
COc1ccc(Nc2cncc(-c3cccc(NC(=O)c4ccccc4)c3)c2)cc1 [Example 2, 3-(m-Benzoylaminophenyl)-5-(p-methoxyphenylamino)pyridine]							7.00 to 8.00			> 8.00							7.00 to 8.00	7.00 to 8.00	< 6.00	< 6.00	pEC50 (HeLa [3]; Homo sapiens): 7.00 to 8.00; pEC50 (MRC5 [4]; Homo sapiens): < 6.00; pIC50 (H460; Homo sapiens, NCI-H460, 144 h): 6.00 to 7.00; pIC50 (HeLa [14]; Homo sapiens, 144 h): 6.00 to 7.00; pEC50 (HeLa [6]; Homo sapiens): 6.00 to 7.00; pIC50 (MRC5 [7]; Homo sapiens): 7.00 to 8.00; pIC50 (Jurkat [9]; Homo sapiens): > 8.00; pIC50 (HeLa [10]; Homo sapiens): 7.00 to 8.00; pIC50 (HT1080; Homo sapiens, HT-1080): 7.00 to 8.00; pEC50 (Jurkat [11]; Homo sapiens): 7.00 to 8.00; pEC50 (PBL [12]; Homo sapiens): < 6.00; pEC50 (HeLa [13]; Homo sapiens): 7.00 to 8.00; melting point: 135 to 140 °C
COc1ccc(Nc2cncc(-c3cccc(NS(=O)(=O)CCCCl)c3)c2)cc1 [Example 7]	7.00 to 8.00	7.00 to 8.00	< 6.00	< 6.00	6.00 to 7.00	7.00 to 8.00	7.00 to 8.00	6.00 to 7.00	6.00 to 7.00	7.00 to 8.00	7.00 to 8.00	6.00 to 7.00	6.00 to 7.00	7.00 to 8.00	< 6.00	7.00 to 8.00					
CCS(=O)(=O)Nc1cccc(-c2cncc(Nc3ccc(OC)cc3)c2)c1 [Example 4]	> 8.00	> 8.00	< 6.00	< 6.00	6.00 to 7.00	7.00 to 8.00	7.00 to 8.00	6.00 to 7.00	6.00 to 7.00	7.00 to 8.00	7.00 to 8.00	6.00 to 7.00	7.00 to 8.00	7.00 to 8.00	< 6.00	6.00 to 7.00					pIC50 (H460): 7.00 to 8.00; pIC50 (HeLa [14]): 7.00 to 8.00
COc1ccc(Nc2cncc(-c3cccc(Nc4ccccn4)c3)c2)cc1 [Example 3, 5-(p-Methoxyphenylamino)-3-(m-[2-pyridylamino]phenyl)pyridine]							7.00 to 8.00			7.00 to 8.00							7.00 to 8.00	7.00 to 8.00	< 6.00	6.00 to 7.00	pEC50 (HeLa [3]; Homo sapiens): 6.00 to 7.00; pEC50 (MRC5 [4]; Homo sapiens): 6.00 to 7.00; pIC50 (MRC5 [7]; Homo sapiens): 6.00 to 7.00; pIC50 (Jurkat [9]; Homo sapiens): 7.00 to 8.00; pIC50 (HeLa [10]; Homo sapiens): 6.00 to 7.00; pIC50 (HT1080; Homo sapiens, HT-1080): 7.00 to 8.00; pEC50 (Jurkat [11]; Homo sapiens): 7.00 to 8.00; pEC50 (PBL [12]; Homo sapiens): < 6.00; pEC50 (HeLa [13]; Homo sapiens): 6.00 to 7.00; melting point: 161 to 165 °C
COc1ccc(Nc2cncc(-c3cccc(NC(=O)c4ccncc4)c3)c2)cc1 [Example 16]	> 8.00	> 8.00	< 6.00	6.00 to 7.00	7.00 to 8.00	> 8.00	> 8.00	7.00 to 8.00	> 8.00			7.00 to 8.00	> 8.00	> 8.00	< 6.00	7.00 to 8.00					
